{"source": "patent EP3785696A1", "about": "“COSMETIC USE OF AROMATIC FORMAMIDINE DERIVATIVES” (B.R.A.I.N. Biotechnology Research And Information Network AG, priority 2019, dated 2021)", "assay_type_in_all_cases": "cell-based", "key": {"[1]": {"tested_on": "MelanoDerm™ (Mattek Corp.) tissues", "test": "MelanoDerm™ assay: melanin content in reconstructed skin tissues", "settings": "336 h, 14 days of treatment, melanin content normalized on protein content, read-out: % inhibition relative to negative control", "procedure": "Phenotypic skin lightening was assessed in reconstructed skin using MelanoDerm™ (Mattek Corp.) tissues (Figure 1).\nControls were: negative control (ultrapure water) and positive control (10 µM Ketoconazol). Test compounds were prepared in DMSO with a concentration of 10 mM and diluted in EPI-100-LLM medium (Mattek Corp.) to a final concentration of 25 µM.\nMelanoDerm™ tissues were equilibrated in pre-warmed EPI-100-LLMM medium (6-Well plates, 5 ml per well) for 1 h (37°C, 5 % CO2) before treatment. Test compounds were applied systemically by addition into the culture medium. […] At the end of the treatment, tissues were analyzed via macroscopic/microscopic images and in vitro assay, for viability and for melanin content. […] Cytotoxicity was assessed using microscopic tissue images (10× magnification). Tissue viability as a result of test compound relative to negative control was determined using Cell Proliferation Reagent WST-1 (cat# 05015944001, Roche). For melanin quantitation tissues were submerged for 5 min in phosphate buffered saline (PBS, 5 ml), removed from PBS and rinsed with additional 2 ml PBS. […] All incubated samples were centrifuged at 13,000 rpm for 5 min and the optical density of the supernatant (200 µl) was measured at 490 nm. The amount of melanin (µg) from each tissue sample was determined using the melanin standard samples calibration curve. […]"}, "MC1-R": {"target": "T1, MC1-R (Homo sapiens, UniProt Q01726, A105V)", "T1 construct": "MC1-R cDNA expression results in the corresponding protein (NP_002377.4); expressed in transfected cells", "T1 sequence (Q01726 1-317 A105V)": "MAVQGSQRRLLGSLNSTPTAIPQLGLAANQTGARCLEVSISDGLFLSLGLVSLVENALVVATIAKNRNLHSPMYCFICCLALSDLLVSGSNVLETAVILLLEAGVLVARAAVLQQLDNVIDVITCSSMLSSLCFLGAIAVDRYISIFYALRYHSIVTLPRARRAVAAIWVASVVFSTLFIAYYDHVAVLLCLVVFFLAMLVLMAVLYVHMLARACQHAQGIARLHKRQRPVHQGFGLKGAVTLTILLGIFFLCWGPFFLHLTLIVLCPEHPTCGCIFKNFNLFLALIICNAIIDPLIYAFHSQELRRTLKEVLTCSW", "test": "Determination of compound activity on MC1-R (antagonist testing, Fluo-4 Ca2+ fluorescence in HEK293/Gα15/MC1-R cells)", "settings": "25 µM", "excerpt": "A MC1-R expressing cell line for assessing melanogenesis modulating activity was established based on engineered HEK 293 cells, stably expressing the murine G-protein Gα15 (NM_010304.3). The promiscuous Gα15 protein couples to MC1-R and therefore links receptor stimulation to Ca^2+-signaling.\nTo achieve a stable expression of the target receptor this HEK293/Gα15 cell line was further stably transfected with an expression vector for the human MC1-R receptor. MC1-R cDNA expression results in the corresponding protein (NP_002377.4 with an amino acid replacement at position 105 (A105V)).\nHEK293 cells stably expressing the target receptor MC1-R and the promiscuous murine Gα15 protein (HEK293/Gα15/MC1-R) were established as described above. […] Changes in internal Ca^2+-concentration are measured via the Ca^2+-sensitive fluorescent dye Fluo-4 (2-{[2-(2-{5-[bis(carboxymethyl)amino]-2-methyl-phenoxy}ethoxy)-4-(2,7-difluoro-6-hydroxy-3-oxo-3H-xanthen-9-yl)phenyl](carboxymethyl)amino}acetic acid) in a fluorescence plate reader (FLEX-Station, Molecular Devices) at an excitation wavelength of 488nm and emission of 535nm.\nRecombinant HEK293/Gα15/MC1-R cells were cultured in DMEM with 10% FBS, 2mM glutamine, 1,3 mg/ml geneticin and 5 µg/ml blasticidin. Cells were seeded in 96 well, poly-D-lysine coated, black well/ clear bottom fluorescence plates in medium without antibiotics. […]"}, "MC2-R": {"target": "T2, MC2-R (Homo sapiens, UniProt Q01718)", "T2 construct": "MC2-R cDNA expression results in MC2-R protein NP_000520.1; expressed in transfected cells; host or cells: HEK293/Gα15 cells", "T2 sequence (Q01718 whole entry)": "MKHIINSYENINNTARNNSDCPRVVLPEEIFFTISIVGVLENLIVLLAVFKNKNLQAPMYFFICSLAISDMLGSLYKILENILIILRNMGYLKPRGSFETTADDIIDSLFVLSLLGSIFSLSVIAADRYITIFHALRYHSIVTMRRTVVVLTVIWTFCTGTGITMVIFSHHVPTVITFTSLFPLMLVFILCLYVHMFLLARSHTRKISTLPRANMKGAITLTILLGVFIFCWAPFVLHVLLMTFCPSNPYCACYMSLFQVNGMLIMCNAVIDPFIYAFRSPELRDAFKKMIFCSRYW", "T2 sequence (Q8TCY5 whole entry partner)": "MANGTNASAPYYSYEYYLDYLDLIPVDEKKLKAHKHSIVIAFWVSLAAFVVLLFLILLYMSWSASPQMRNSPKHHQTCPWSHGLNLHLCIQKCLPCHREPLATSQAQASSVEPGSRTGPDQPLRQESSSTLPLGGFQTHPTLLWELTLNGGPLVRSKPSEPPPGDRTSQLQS", "test": "Determination of compound activity on MC2-R (antagonist testing, Fluo-4 Ca2+ fluorescence in HEK293/Gα15 cells with MC2-R and MRAP)", "settings": "Figure 2; 25 µM, added 10 min prior addition of ACTH (EC80)", "excerpt": "HEK293 cells stably expressing the target receptor MC2-R, the accessory protein MRAP and the promiscuous murine Gα15 protein were established on basis of the above-mentioned HEK293/Gα15 cell line. These cells were further transfected with an expression vector comprising human MC2-receptor and additional MRAP (MC2-Receptor Accessory Protein) cDNA. MC2-R cDNA expression results in MC2-R protein NP_000520.1, MRAP cDNA expression results in MRAP protein NP_848932.1.\nStimulation of MC2-R with ACTH (adrenocorticotropic hormone) increases intracellular Ca^2+-concentration, inhibition of MC2-R decreases these ACTH induced Ca^2+-responses. Changes in intracellular Ca^2+-levels were measured via the Ca^2+-sensitive fluorescent dye Fluo-4 in a fluorescent plate reader.\n(§1) For antagonist-testing, test compound was added to cells with a final concentration of 25 µM 10 min prior addition of ACTH (EC80). The threshold for antagonistic activity was defined in this experiment as 70% of the positive control ACTH (the EC80 value is set as 100%), and the assay was accepted as valid if the standard deviation of the ACTH signal is 10% or less."}, "MC3-R": {"target": "T3, MC3-R (Homo sapiens, UniProt P41968)", "T3 construct": "MC3-R cDNA expression results in MC3-R protein NP_063941.3; expressed in transfected cells; host or cells: HEK293/Gα15 cells", "T3 sequence (P41968 whole entry)": "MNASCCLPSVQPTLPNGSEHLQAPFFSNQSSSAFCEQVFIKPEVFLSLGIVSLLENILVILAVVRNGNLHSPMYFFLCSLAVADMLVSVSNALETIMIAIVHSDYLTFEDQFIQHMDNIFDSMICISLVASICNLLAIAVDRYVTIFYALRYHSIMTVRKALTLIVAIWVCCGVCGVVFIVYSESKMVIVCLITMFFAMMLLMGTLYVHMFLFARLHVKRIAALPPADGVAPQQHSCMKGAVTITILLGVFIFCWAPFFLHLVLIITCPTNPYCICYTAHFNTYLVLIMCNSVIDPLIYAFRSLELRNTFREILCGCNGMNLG", "test": "Determination of compound activity on MC3-R (antagonist testing, Fluo-4 Ca2+ fluorescence in HEK293/Gα15 cells)", "settings": "Figure 2; 25 µM, added 10 min prior stimulation with αMSH (EC80)", "excerpt": "(§2) HEK293 cells stably expressing the target receptor MC3-R and the promiscuous murine Gα15 protein were established on basis of the above-mentioned HEK293/Gα15 cell line. These cells were further transfected with an expression vector comprising the human MC3-receptor cDNA. MC3-R cDNA expression results in MC3-R protein NP_063941.3.\nStimulation of MC3-R with αMSH increases intracellular Ca^2+-concentration, inhibition of MC3-R decreases these αMSH induced Ca^2+-responses. Changes in intracellular Ca^2+-levels were measured via the Ca^2+-sensitive fluorescent dye Fluo-4 in a fluorescent plate reader.\nas §1, with “stimulation with αMSH (using EC80).” for “addition of ACTH (EC80).”, “defined” for “defined in this experiment”, “αMSH” for “ACTH”"}, "MC4-R": {"target": "T4, MC4-R (Homo sapiens, UniProt P32245)", "T4 construct": "MC4-R cDNA expression results in MC4-R protein NP_005903.2; expressed in transfected cells; host or cells: HEK293/Gα15 cells", "T4 sequence (P32245 whole entry)": "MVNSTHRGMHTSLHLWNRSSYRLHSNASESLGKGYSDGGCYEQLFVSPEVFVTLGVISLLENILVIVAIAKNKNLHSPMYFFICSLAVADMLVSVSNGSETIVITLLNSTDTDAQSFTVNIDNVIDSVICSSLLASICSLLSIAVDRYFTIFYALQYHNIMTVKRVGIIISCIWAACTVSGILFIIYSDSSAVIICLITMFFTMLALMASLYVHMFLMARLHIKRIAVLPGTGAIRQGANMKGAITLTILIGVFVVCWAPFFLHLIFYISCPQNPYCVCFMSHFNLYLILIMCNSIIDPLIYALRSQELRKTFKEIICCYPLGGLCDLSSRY", "test": "Determination of compound activity on MC4-R (antagonist testing, Fluo-4 Ca2+ fluorescence in HEK293/Gα15 cells)", "settings": "Figure 2; 25 µM, added 10 min prior stimulation with αMSH (EC80)", "excerpt": "as §2, with “MC4-R” for “MC3-R”, “MC4-receptor” for “MC3-receptor”, “NP_005903.2.” for “NP_063941.3.”\nStimulation of MC4-R with αMSH increases intracellular Ca^2+-concentration, inhibition of MC4-R decreases these αMSH induced Ca^2+-responses. Changes in intracellular Ca^2+-levels were measured via the Ca^2+-sensitive fluorescent dye Fluo-4 in a fluorescent plate reader.\nas §1, with “stimulation with αMSH (using EC80).” for “addition of ACTH (EC80).”, “defined” for “defined in this experiment”, “αMSH” for “ACTH”"}, "MC5-R": {"target": "T5, MC5-R (Homo sapiens, UniProt P33032)", "T5 construct": "MC5-R cDNA expression results in MC5-R protein NP_005904.1; expressed in transfected cells; host or cells: HEK293/Gα15 cells", "T5 sequence (P33032 whole entry)": "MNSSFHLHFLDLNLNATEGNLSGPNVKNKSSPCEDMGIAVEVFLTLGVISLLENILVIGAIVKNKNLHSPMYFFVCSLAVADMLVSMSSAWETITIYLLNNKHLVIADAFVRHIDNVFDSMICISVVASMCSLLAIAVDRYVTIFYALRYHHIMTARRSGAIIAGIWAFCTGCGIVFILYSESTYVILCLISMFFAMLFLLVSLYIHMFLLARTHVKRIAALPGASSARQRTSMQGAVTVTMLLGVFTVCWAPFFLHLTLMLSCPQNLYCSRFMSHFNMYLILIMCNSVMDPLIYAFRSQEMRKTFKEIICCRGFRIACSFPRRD", "test": "Determination of compound activity on MC5-R (antagonist testing, Fluo-4 Ca2+ fluorescence in HEK293/Gα15 cells)", "settings": "Figure 2; 25 µM, added 10 min prior stimulation with αMSH (EC80)", "excerpt": "HEK293 cells stably expressing the target receptor MC5-R and the promiscuous murine Gα15 protein were established on the basis of the above-mentioned HEK293/Gα15 cell line. These cells were further transfected with an expression vector comprising the human MC5-receptor cDNA. MC5-R cDNA expression results in MC5-R protein NP_005904.1.\nStimulation of MC5-R with αMSH increases intracellular Ca^2+-concentration, inhibition of MC5-R decreases these αMSH induced Ca^2+-responses. Changes in intracellular Ca^2+-levels were measured via the Ca^2+-sensitive fluorescent dye Fluo-4 in a fluorescent plate reader.\nas §1, with “stimulation with αMSH (using EC80).” for “addition of ACTH (EC80).”, “defined” for “defined in this experiment”, “αMSH” for “ACTH”"}}, "data": [{"smiles": "COc1ccc(CSC(=N)N)cc1Br", "note": "[Compound (III)]", "values": [{"measurement": "inhibition at 25 µM", "setting": "[1]; 25 µM in culture medium", "result": -53.4, "unit": "%"}, {"measurement": "reduce MC1R activation by", "setting": "MC1-R; added 10 min prior stimulation with αMSH (EC80 set as 100%)", "result": "51,3%"}, {"measurement": "reduce MC1R activation to", "setting": "MC1-R; Figure 2, αMSH (EC80) signal set as 100%, remaining activation", "result": "about 50%"}, {"measurement": "activity of MC2R", "setting": "MC2-R", "result": "not significantly affected"}, {"measurement": "activity of MC3R", "setting": "MC3-R", "result": "not significantly affected"}, {"measurement": "activity of MC4R", "setting": "MC4-R", "result": "not significantly affected"}, {"measurement": "activity of MC5R", "setting": "MC5-R", "result": "not significantly affected"}]}, {"smiles": "CC(=O)N1CCN(c2ccc(OCC3COC(Cn4ccnc4)(c4ccc(Cl)cc4Cl)O3)cc2)CC1", "note": "(centres unmarked) [Ketoconazol, reference compound]", "values": [{"measurement": "inhibition at 10 µM", "setting": "[1]; 10 µM in culture medium", "result": -70.9, "unit": "%"}]}]}
